Measured values as given in US20210154162A1, “DRUG AND PHARMACEUTICAL COMPOSITION CONTAINING TRANSPORT PROTEIN INHIBITOR, AND USE” (Institute of Basic Medical Sciences Chinese Academy of …, priority 2018, published 2021).
Counter-ions that a name gives are not always drawn.

Key:
OVA-B16 cells = assay: Effect of SAR and BCH on killing of OVA-B16 cells by OT-1 CD8+ T cells (apoptosis, flow cytometry); assay type: cell-based, mouse; conditions: T cells pretreated 24 h with 10 mM SAR or 100 μM BCH; co-culture 1:10, 4 hours
Protocol: Splenic CD8^+ T cells of OT-1 mouse were obtained by magnetic bead sorting and seeded into a U-shaped bottom 96-well plate (100000 cells/well). Cells were grouped and treated with drugs as follows.
(§1) Control group 1 (PBS): culture medium+PBS;
Experimental group 2 (SAR): culture medium+10 mM SAR;
Experimental group 3 (BCH): culture medium+100 μM BCH;
After T cells were pretreated for 24 hours, 3D-cultured OVA-B16 cells were co-cultured with OT-1 CD8^+ T cells at a ratio of 1:10, and the apoptosis of OVA-B16 cells was determined by flow cytometry after 4 hours.

PD-1 [1] = assay: Effect of SAR and BCH on PD-1 expression in human peripheral blood CD8+ T cells (flow cytometry); assay type: cell-based; conditions: breast cancer patients, 200 μM Kyn + 10 mM SAR or 100 μM BCH, 48 h
Protocol: Mononuclear cells were isolated and obtained from the peripheral whole blood of breast cancer patients by using Ficoll. CD8^+ T cells were sorted by magnetic beads, and seeded into a U-shaped bottom 96-well plate (100000 cells/well) while anti-CD3/CD28 magnetic beads were added to activate T cells. The culture medium was RPMI-1640 added with 10 ng/mL human IL-2. Cells were grouped and treated with drugs as follows.
as §1
(§2) Experimental group 2 (Kyn): culture medium+200 μM Kyn;
Experimental group 3 (Kyn+SAR): culture medium+200 μM Kyn+10 mM SAR; Experimental group 4 (Kyn+BCH): culture medium+200 μM Kyn+100 μM BCH;
(§3) The expression level of PD-1 in CD8^+ T cells of each group was determined by flow cytometry after 48 h.

PD-1 [2] = assay: AhR activity and PD-1 expression in CD8+ T cells with SLC7A8/PAT4 inhibition or knockdown; assay type: cell-based, mouse; conditions: for PD-1 upregulation: Kyn 200 μM, 48 h; for AhR activity: T cells treated with transporter inhibitor
Protocol: (4) The experimental steps were the same as those of step (3), except that the expression of PD-1 was analyzed by flow cytometry.

OVA-B16 TRCs = assay: OT-1 T cell cytotoxicity to OVA-B16 TRCs with SLC7A8/PAT4 inhibition or knockdown; assay type: cell-based, mouse; conditions: co-culture
Protocol: (5) Activated OT-1 T cells were transfected with scramble shRNA, PAT4 shRNAs (Sh1 and Sh2) or SLC7A8 shRNAs (Sh1 and Sh2) for 72 h, and then co-cultured with OVA-B16 TRCs. TRC apoptosis was analyzed by flow cytometry.

PD-1 [3] = assay: Effect of SAR and BCH on PD-1 expression in mouse CD8+ T cells (flow cytometry); assay type: cell-based; conditions: 200 μM Kyn + 10 mM SAR or 100 μM BCH, 48 h
Protocol: Mouse splenic CD8^+ T cells were obtained by magnetic bead sorting, and seeded into a U-shaped bottom 96-well plate (100000 cells/well) while anti-CD3/CD28 magnetic beads were added to activate T cells. The culture medium was RPMI-1640 added with 10 ng/mL mouse IL-2 and […] β-mercaptoethanol. Cells were grouped and treated with drugs as follows.
as §1, §2
Experimental group 3 (Kyn+SAR): culture medium+200 μM Kyn+10 mM SAR;
Experimental group 4 (Kyn+BCH): culture medium+200 μM Kyn+100 μM BCH;
as §3

SLC7A8 and PAT4 = assay: Kyn consumption by activated CD8+ T cells with SLC7A8/PAT4 inhibition or knockdown (ELISA); assay type: cell-based, mouse; conditions: Kyn 200 μM, 48 h
Protocol: (3) Scramble shRNA or shRNA against SLC7A8 and PAT4 were delivered via retrovirus to activated CD8^+ T cells for 24 h, and then the transduced T cells were treated with Kyn (200 μM) for 48 h. Kyn levels in the supernatants were determined by ELISA and the Kyn consumption was calculated.

AhR = assay: PD-1 expression in activated CD8+ T cells treated with Kyn plus AhR inhibitor (flow cytometry); assay type: cell-based, mouse; conditions: Kyn plus inhibitor (DMF 10 or 20 μM), 72 h
Protocol: (4) CD8^+ T cells activated by anti-CD3/CD28 beads were treated with PBS, Kyn or Kyn/DMF (10 or 20 μM) for 72 h. The expression of PD-1 was determined by flow cytometry.

PAT4 and SLC7A8 [4] = assay: PAT4 and SLC7A8 expression in activated CD8+ T cells (real-time PCR, immunostaining); assay type: cell-based, mouse; conditions: activated CD8+ T cells, Kyn/CH-223191 (10 μM) or Kyn/DMF (20 μM), 48 h
Protocol: (2) Activated CD8^+ T cells were treated with PBS or Kyn (200 μM) for 24 h. The expression of PAT4 and SLC7A8 was determined by real-time PCR (left) and immunostaining (right). Bar, […].
(6) The mRNA expression of PAT4 and SLC7A8 was determined in activated CD8^+ T cells treated with PBS, Kyn, Kyn/CH-223191 (10 μM) or Kyn/DMF (20 μM) for 48 h.

PAT4 and SLC7A8 [5] = assay: PAT4 and SLC7A8 expression in CD8+ T cells from breast cancer patients (real-time PCR); assay type: cell-based, human; conditions: Kyn/DMF (20 μM) or Kyn/CH (50 μM), 48 h
Protocol: (8) CD8^+ T cells from breast cancer patients were treated with PBS, Kyn ([…] (20 μM) or Kyn/CH (50 μM) for 48 h. The expression of PAT4 and SLC7A8 was determined by real-time PCR. The determination results were as shown in FIG. 7I.

PD-1 [6] = assay: PD-1 expression in human CD8+ T cells treated with Kyn and AhR inhibitors (flow cytometry); assay type: cell-based; conditions: human CD8+ T cells, Kyn plus inhibitor (DMF 20 μM), 48 h
Protocol: (4) CD8^+ T cells isolated from PBMCs of patients with breast cancer or lung cancer were activated by anti-CD3/CD28 beads and treated with PBS, Kyn (200 μM) or Kyn/DMF (20 μM) for 48 h. The expression of PD-1 was determined by flow cytometry.
(5) CD8^+ T cells isolated from patients with breast cancer or lung cancer were treated with DMF (20 μM) for 48 h. PD-1 expression was determined by flow cytometry (n=6).

PD-1 [7] = assay: PD-1 expression in activated CD8+ T cells treated with TCDD (qPCR, flow cytometry); assay type: cell-based, mouse; conditions: 48 h
Protocol: (7) Activated CD8^+ T cells were treated with TCDD for 48 h and then PD-1 expression was analyzed by qPCR (left) and flow cytometry (right). The data represented mean±SEM.

PD-1 [8] = assay: PD-1 expression in anti-CD3/CD28 bead-activated CD8+ T cells treated with Kyn or other tryptophan metabolites (flow cytometry); assay type: cell-based, mouse; conditions: other tryptophan metabolites 500 μM, 24 h
Protocol: (4) The isolated splenic CD8^+ T cells were incubated with anti-CD3/CD28 beads in the presence of different concentrations of Kyn. PD-1 expression was determined by flow cytometry.
(5) The experimental steps were the same as those of step (4), except that CD8^+ T cells were treated with 200 μM Kyn for different time periods as shown in FIG. 2E.
(6) Anti-CD3/CD28 bead-activated CTLs were treated with PBS, 200 μM Kyn or other metabolites (500 μM) from the tryptophan pathway (melatonin, kynurinic acid and indoxyle sulphate). After 24 h, PD-1 expression was determined by flow cytometry.

[9] = target: T1, tryptophan transporter SLC1A5 (Mus musculus, UniProt P51912); assay: Effect of GPNA on the uptake of tryptophan by tumor cells (ELISA of lysates); assay type: cell-based; conditions: OVA-B16 cells, 50 ng/mL IFN-γ, 24 h
T1 construct: endogenous in cells; host or cells: mouse OVA-B16 melanoma cells
T1 sequence (P51912 1-553): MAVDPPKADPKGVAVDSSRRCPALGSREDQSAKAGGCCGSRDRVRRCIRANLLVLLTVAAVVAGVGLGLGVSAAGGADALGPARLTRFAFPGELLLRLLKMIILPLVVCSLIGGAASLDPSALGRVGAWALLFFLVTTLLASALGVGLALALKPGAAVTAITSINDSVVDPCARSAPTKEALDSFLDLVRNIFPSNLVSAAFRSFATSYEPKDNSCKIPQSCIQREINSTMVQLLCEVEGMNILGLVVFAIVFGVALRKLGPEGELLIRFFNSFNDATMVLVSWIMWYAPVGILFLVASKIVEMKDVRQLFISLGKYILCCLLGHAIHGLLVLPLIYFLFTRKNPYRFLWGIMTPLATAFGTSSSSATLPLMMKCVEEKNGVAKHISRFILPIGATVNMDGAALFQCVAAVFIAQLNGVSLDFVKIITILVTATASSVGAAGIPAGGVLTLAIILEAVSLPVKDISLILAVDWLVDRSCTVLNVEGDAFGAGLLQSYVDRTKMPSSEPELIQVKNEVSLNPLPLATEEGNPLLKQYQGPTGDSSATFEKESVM
Protocol: Mouse OVA-B16 cells were cultured in RPMI-1640 culture medium in vitro and were group and treated as follows.
as §1
Control group 2 (GPNA): culture medium+10 μM GPNA;
Experimental group 3 (IFN-γ): culture medium+50 ng/mL IFN-γ;
Experimental group 4 (IFN-γ+GPNA): culture medium+50 ng/mL IFN-γ+10 μM GPNA;
The cells in each group were collected after 24 h and ultrasonically broken, the concentrations of tryptophan in the lysates were determined by ELISA, and BCA protein assay was carried out at the same time.

Which results are given for `NC1(C(=O)O)CC2CCC1C2` (centres unmarked) [BCH, 2-amino-2-norbornanecarboxylic acid]?
apoptosis ratio of OVA-B16 tumor cells (OVA-B16 cells): increased significantly; expression of PD-1 in CD8+ T cells (PD-1 [1]): significantly reducing; PD-1 upregulation (PD-1 [2]): abolished; AhR activity (PD-1 [2]): inhibited; OT-1 T cell cytotoxicity to OVA-B16 TRCs (OVA-B16 TRCs): enhanced; expression of PD-1 in CD8+ T cells (PD-1 [3]): significantly reducing; entry of Kyn into T cells (SLC7A8 and PAT4): blocked

How did the “Kyn-dependent upsurge of PD-1” value (AhR) turn out when `Cc1ccccc1N=Nc1ccc(NC(=O)c2ccnn2C)c(C)c1` [CH-223191] was run?
The value was “thwarted”.

And the “Kyn-induced upregulation of SLC7A8 and PAT4” value (PAT4 and SLC7A8 [4])?
The value was “effectively inhibiting”.

What about the “Kyn-induced upregulation of SLC7A8 and PAT4” value (PAT4 and SLC7A8 [5]) of the same molecule?
The value was “blocked”.

And the “Kyn-induced PD-1 upregulation” value (PD-1 [6])?
The value was “inhibited”.

With `CNCC(=O)O` [SAR, sarcosine] as the molecule, how does the “apoptosis ratio of OVA-B16 tumor cells” value (OVA-B16 cells) read?
The value was “increased significantly”.

And the “expression of PD-1 in CD8+ T cells” value (PD-1 [1])?
Its value is “significantly reducing”.

And the PD-1 upregulation (PD-1 [2])?
The PD-1 upregulation was “abolished”.

And the AhR activity (PD-1 [2])?
Its AhR activity is “inhibited”.

What about the “OT-1 T cell cytotoxicity to OVA-B16 TRCs” value (OVA-B16 TRCs) of the same molecule?
Its value is “enhanced”.

And the “expression of PD-1 in CD8+ T cells” value (PD-1 [3])?
The value was “significantly reducing”.

What about the “entry of Kyn into T cells” value (SLC7A8 and PAT4) of the same molecule?
Its value is “blocked”.

For `Clc1cc2c(cc1Cl)Oc1cc(Cl)c(Cl)cc1O2` [TCDD], which PD-1 expression (PD-1 [7]) is on record?
The PD-1 expression was “upregulated”.

`O=S(=O)(O)Oc1c[nH]c2ccccc12` [indoxyl sulfate] was tested. Which PD-1 expression (PD-1 [8]) did it give?
The PD-1 expression was “none of them was able to alter PD-1 expression”.

For `O=C(O)c1cc(=O)c2ccccc2[nH]1` [kynurenic acid], which PD-1 expression (PD-1 [8]) is on record?
The PD-1 expression was “none of them was able to alter PD-1 expression”.

How did the PD-1 expression (PD-1 [8]) turn out when `COc1ccc2[nH]cc(CCNC(C)=O)c2c1` [melatonin] was run?
The PD-1 expression was “none of them was able to alter PD-1 expression”.

B1: IFN-γ: recombinant IFN-γ purchased from R & D Systems (protein, UniProt P01579 24-161, looked up)
Interferon gamma: QDPYVKEAENLKKYFNAGHSDVADNGTLFLGILKNWKEESDRKIMQSQIVSFYFKLFKNFKDDQSIQKSVETIKEDMNVKFFNSNKKKRDDFEKLTNYSVTDLNVQRKAIHELIQVMAELSPAAKTGKRKRSQMLFRG
How did the “uptake of tryptophan by tumor cells” value [9] turn out when B1 was run?
Its value is “significantly increasing”.
